Two molecules from US12239645B2, “Targeted dosing for the treatment of complement mediated disorders” (Achillion Pharmaceuticals, Inc., priority 2018, dated 2025) can be followed below.

Data set [1] has as its system complement alternative pathway (AP) activity. Briefly: MAD study: ex vivo serum AP hemolysis activity and PK-PD analysis. Type of data set: in vivo, human. The conditions noted are these: Homo sapiens; sigmoidal model, multiple ascending dose, ex-vivo AP hemolysis, FIG. 12; read-out: modeled IC90 drug plasma concentration (90% inhibition level). As for the experimental part:
Ex vivo serum AP hemolysis assays were conducted in 96-well microtiter plates divided into two parts, one for hemolysis and the other for serum background color subtraction. Briefly, a suspension of rabbit red blood cells (RBCs) was centrifuged at 800×g at 4° C. for 3 minutes and the supernatant was removed to get rid of the RBC debris. The RBC cell pellet was re-suspended gently with pre-chilled gelatin veronal buffer (GVB0) containing 10 mM MgEGTA to a density of 5×10^8 cells/mL. Other controls including buffer, spontaneous rabbit RBC lysis, 100% RBC lysis (in water), and normal serum control were set up alongside the test samples as well. Serum was placed in a 37° C. water-bath until mostly thawed and immediately transferred to ice bath. 20% serum was prepared with GVB0-MgEGTA buffer and kept at ice bath before testing. Reactions were carried out in a 96 well plate by mixing 50 μl of 20% serum with equal volume of GVB0-MgEGTA buffer and then quickly adding 20 μl of RBC suspension. The plate was shaken on a microtiter plate shaker for 5 seconds and then incubated at 37° C. for 30 minutes. Halfway during the incubation period, the plate was shaken for another 5 seconds as described above. At the end of the incubation, the plate was centrifuged at 800×g at 4° C. for 3 minutes to pellet the un-lysed rabbit RBCs. 80 μl of supernatant was removed carefully from all wells and transferred to a clear flat-bottom microtiter plate for the measurement of optical absorbance at 405 nm (A405) in a Molecular Devices Spectramax Plus plate reader. AP hemolysis in each well was calculated relative to the activity of the NHS reference sample formulas as follows: Hemolysis (%)=((Hm−Bk)−(Sp−Bf))/((NH−BkNH)−(Sp−Bf))×100%
where Hm=A405 in the hemolysis well, Bk=A405 in the corresponding background well, Sp=mean A405 in the spontaneous hemolysis wells, Bf=mean A405 in the buffer alone wells, NH=mean A405 in the reference NHS wells, and BkNH=mean A405 in the corresponding background wells.
The PK-PD relationship was evaluated using time-matched plasma Compound 1 concentrations and serum AP inhibition values by non-linear regression with GraphPad Prism (La Jolla, CA) using the following two models: • 1. The simple Emax model to determine the 50% effective concentration (EC50): Y=E0+Emax×X/(EC50+X) where X=plasma Compound 1 concentration, Y=percent inhibition in the corresponding serum sample, E0=0% inhibition (pre-dose AP activity), and Emax=100% inhibition. • 2. The four-parameter sigmoidal model to determine EC50 and the 90% effective concentration (EC90): Y=E0+(Emax−E0)/(1+10^((Log EC50−X)×HillSlope)) where X, Y, E0, and Emax are defined as above (Emax model) and HillSlope=the slope factor or Hill slope. Pharmacodynamic and Pharmacokinetic Results AP Activity Measured with AP Hemolysis
A multiple ascending dose (MAD) study of Compound 1 with two additional single-dose cohorts was also completed. […] Secondary objectives included evaluation of the pharmacokinetic (PK) profile and the relationship between Compound 1 PK and pharmacodynamic (PD) characteristics, that is, the inhibition of complement alternative pathway (AP) activity (PK/PD). In the MAD study, multiple-dose pharmacokinetics and pharmacodynamics of Compound 1 were evaluated in four dose groups administered Compound 1 (40, 80, 120 and 200 mg BID) in the fasted state for 14-days (Table 3). Eight subjects received active drug in each group; eight subjects received placebo in the first dose group (40 mg) and two subjects received placebo in each of the other three dose groups. Two additional cohorts were administered Compound 1 at single doses of 240 mg (fasted subjects) and 120 mg (fed subjects) (Table 3). The two single-dose cohorts each comprised six subjects receiving active drug and two subjects receiving placebo. […]

Data set [2] is described as follows: Compound 2 administered to humans (diurnal metabolic pattern). It is filed as in vivo, human. From the text: This could not have been predicted prior to human administration of the drug.

Molecules are shown by their SMILES. In brackets after ≈: the same amount, converted by molar mass.

Consider `CC(=O)c1nn(CC(=O)N2C[C@H](F)C[C@H]2C(=O)Nc2cccc(Br)n2)c2ccc(-c3cnc(C)nc3)cc12` [Danicopan, reference compound], for which, in data set [1], the IC90 was 0.235 µg/mL (≈ 0.405 µM). Take `CC(=O)c1nn(CC(=O)N2C[C@H](F)C[C@H]2C(=O)Nc2cccc(Br)n2)c2ccc(-c3cnc(C)nc3)cc12` [Compound 2, (2S,4R)-1-(2-(3-acetyl-5-(2-methylpyrimidin-5-yl)-1H-indazol-1-yl)acetyl)-N-(6-bromopyridin-2-yl)-4-fluoropyrrolidine-2-carboxamide]: the diurnal metabolic pattern entry in data set [2] is listed as “does not exhibit a diurnal metabolic pattern”.
